Experimental data as given in patent US8071633B2, “Pharmaceutical composition for treating spinocerebellar ataxia” (Shionogi & Co., Ltd., priority 2004, dated 2011).

Key:
Rolling Mouse Nagoya [1] = assay: Experiment 1: effect of improving ataxia on Rolling Mouse Nagoya (fall index, open-field method); format: in vivo; conditions: for effect on improvement of ataxia (fall index): 1 hour after administration, FIG. 1
Excerpt: Experiment 1 Effect of improving ataxia on Rolling Mouse Nagoya
Rolling Mouse Nagoya, a hereditary ataxia mouse, is known as a model mouse for spinocerebellar ataxia and has been reported in many papers (E. Kurihara, N. Fukuda, S. Narumi, T. Matsuo, S. Saji, and Y. Nagawa, Jpn. Pharmacol., Ther., 13, 49-56 (1985), Y. Mano, K. Matsui, E. Toyoshima, and K. Ando, Acta. Neurol. Scand., 73, 352-358 (1986), K. Kinoshita, T. Fujitsuka, M. Yamamura, and Y. Matsuoka, Eur. J. Pharmacol., 274, 65-72 (1995), K. Kinoshita, T. Fukushima, Y, Kodama, J. Sugihara, M. Yamamura, and Y. Matsuoka, Biol. Pharm. Bull., 20, 36-39 (1997)).
Effect of Compound (I-1) for ataxia of Rolling Mouse Nagoya was investigated. The following compounds in Patent Literature 1 and Non-Patent Literature 1 were used as Control Compounds 1 and 2.
An effect on improvement of ataxia was evaluated with a fall index by an open-field method. Mice were left in the center of an open-field (circle open-field, 75 cm in a diameter, 25 divisions). Number of divisions passed and numbers of falls for 5 minutes were counted, and a fall index (numbers of falls/number of divisions passed) was calculated.
Each of the compounds was dissolved in a physiological saline on the day of the experiment. Each compound was orally administered to mice using a sonde for oral administration at the following dosage; Compound (I-1): 1 mg/kg and 3 mg/kg, Control Compound 1: 30 mg/kg and 100 mg/kg, Control Compound 2: 100 mg/kg and 300 mg/kg. Physiological saline alone was administered to mice as a control group. Volume for oral administration was 0.2 mL per 20 g body weight of a mouse.
Effect on improvement of ataxia for each mouse was evaluated 1 hour after administration by the open-field method. Sample numbers were 5 or more in every group.

Rolling Mouse Nagoya [2] = assay: Experiment 3: effect of improving ataxia on Rolling Mouse Nagoya (fall index, square open-field); format: in vivo; conditions: oral 100 mg/kg, 1 hour after administration, FIG. 3
Method: Experiment 3 Effect of improving ataxia on Rolling Mouse Nagoya
Effects of the compounds described in Patent Literature 8 (I-3: R=CN, I-1: R=CONH2) and Control Compound 2 on ataxia on Rolling Mouse Nagoya were investigated.
The effect on ataxia was evaluated with a fall index by an open-field method. Mice were left in the center of an open-field (square open-field, 100 cm×100 cm, divided into 25 squares of 20 cm×20 cm), number of squares passed and numbers of falls for 10 minutes were counted, and a fall index (numbers of falls/number of squares passed) was calculated.
Each of the compounds was dissolved in a physiological saline on the day of the experiment. Each compound was orally administered to mice using a sonde for oral administration at the following dosage; Compounds (I-3) and (I-4): 10 mg/kg, Control Compound 2: 100 mg/kg. Volume for oral administration was 0.2 mL per 20 g body weight of a mouse.
Each of the test compound was orally administered just after a fall index of each mouse in the open-field was calculated. A fall index was calculated again 1 hour after administration and the effect of improving ataxia was evaluated. Sample numbers were 5 or more in every group.

[3] = test system: cerebellum-injured rat by administration of Ara-C; assay: Experiment 2: effect of improving ataxia on cerebellum-injured rat by administration of Ara-C (fall index, open-field method); format: in vivo, Sprauge-Dawley rats; conditions: for effect on improvement of ataxia (fall index): oral once a day for seven days, 24 hours after final administration, FIG. 2; for dosage ratio giving the same level efficacy versus Compound (I-1): oral, repeated administration
Method: Experiment 2 Effect of improving ataxia on cerebellum-injured rat by administration of Ara-C
Ara-C (60 mg/kg, Nippon Shinyaku) was subcutaneously administered to Sprauge-Dawley rats (CLEA Japan, Inc) of 2 days old and 3 days old, and the effects of improving ataxia on Compound (I-1), Control Compound 1 and Control Compound 2 at 4 weeks old were investigated.
The effect of improving on ataxia was evaluated with a fall index by an open-field method. Rats were left in the center of an open-filed (circle open-filed, 75 cm in a diameter, 25 divisions), number of divisions passed and numbers of falls for 3 minutes were counted, and a fall index (numbers of falls/number of divisions passed) was calculated.
Each of the compounds was dissolved in a physiological saline on the day of administration. Each compound was orally administered to rats using a sonde for oral administration at the following dosage; Compound (I-1): 0.1 mg/kg, 0.3 mg/kg, 1 mg/kg and 3 mg/kg, Control Compound 1: 30 mg/kg and 100 mg/kg, Control Compound 2: 100 mg/kg and 300 mg/kg. Physiological saline alone was administered to rats as a control group. The compounds were repetitively orally administered one a day for seven days and the effect was investigated 24 hours after the final administration. Volume for oral administration was 0.1 mL per 100 g body weight of a rat. Sample numbers were 5 or more in every group.

[4] = oral, comparison of effective doses

With NC(=O)[C@H]1CCCN1C(=O)[C@@H](Cc1c[nH]cn1)NC(=O)[C@@H]1CCC(=O)N1 [Control Compound 2] the “effect on improvement of ataxia (fall index)” value (from here on “effect … (fall index)”) (Rolling Mouse Nagoya [1]; oral, even at 300 mg/kg (100 and 300 mg/kg tested)) was “does not show the improvement effect”, the “effect of improving ataxia (fall index before vs after administration)” value (Rolling Mouse Nagoya [2]) was “weak improvement effect” and the “effect … (fall index)” value ([3]; even at 300 mg/kg) was “does not show the improvement effect”. The “dosage ratio giving the same level efficacy versus Compound (I-1)” value [3] was 1/1000.

In the case of CN1C(=O)C[C@H](C(=O)N[C@H](Cc2c[nH]cn2)C(=O)N2CCC[C@@H]2C(N)=O)NC1=O [Control Compound 1], the “effect … (fall index)” value (Rolling Mouse Nagoya [1]; oral, only at 100 mg/kg (30 and 100 mg/kg tested)) is reported as “superior effect of improving ataxia to that in a control group”, the “effect … (fall index)” value ([3]; only at 100 mg/kg (30 and 100 mg/kg tested)) is reported as “superior effect on improvement of ataxia in comparison of a control group” and the “dosage ratio giving the same level efficacy versus Compound (I-1)” value [3] is reported as 1/300.

C[C@@H]1OC(=O)N[C@@H]1C(=O)N[C@@H](Cc1cscn1)C(=O)N1CCC[C@H]1C.O.O.O [Compound (I-1)] was tested, and the “effect … (fall index)” value (Rolling Mouse Nagoya [1]; oral 3 mg/kg) was “superior effect on improvement of ataxia”, the “effect of improving ataxia relative to Control Compound 1” value (Rolling Mouse Nagoya [1]; [4]) was at least 30 times and the “effect of improving ataxia relative to Control Compound 2” value (Rolling Mouse Nagoya [1]; [4]) was at least 100 times. For the same molecule, the “effect … (fall index)” value ([3]; 0.3 mg/kg or more) was “superior effect on improvement of ataxia to Control Compounds”.
